Reference: US20080312261A1, “4- (4-Bromo-2-Fluoroanilino) -6- Methoxy-7- (1-Methylpiperidin-4-Ylmethoxy) Quinazoline Monohydrate” (priority 2005, published 2008)
Read-outs that look alike come from different tables or passages of the source.

Key:
[1] = Dynamic Vapour Sorption (DVS) analysis; assay type: physicochemical; conditions: for kinetic stability: on the DVS timescale
Description: Analytical Instrument: Surface Measurements Systems Dynamic Vapour Sorption Analyser, calibrated with a saturated salt solution, such as sodium chloride.
About 5 mg of material contained in a quartz holder at a specified temperature was subjected to humidified nitrogen at a flow rate of 200 ml/minute of nitrogen at the following relative humidities (RH): 0, 20, 40, 60, 80, 95, 80, 60, 40, 20, 0% RH in duplicate.
The weight of the material at a particular relative humidity was constantly monitored using an in-situ balance until it was stable according to a weight criteria of 0.002% weight change per minute averaged over 10 minutes. If the weight was still changing then it stayed at a particular relative humidity until the weight was stable (up to a maximum time of 12 hours).

[2] = system: human umbilical vein endothelial cells (HUVEC); conditions: as disclosed in WO 01/32651, cited from earlier work
CaLu-6 tumour xenografts = conditions: 50 mg/kg, orally once daily; CaLu-6 xenografts in mice; p<0.001 (Mann-Whitney Rank Sum Test); cited from earlier work
[3] = system: femoral epiphyseal growth plates; conditions: 100 mg/kg/day in female rats, 14 days oral; p<0.001 (one-tailed Students' t-test); cited from earlier work

Row | hygroscopicity by DVS ([1]; 25° C.) | water absorbed ([1]; at 95% relative humidity, 25° C.) [% weight/weight] | kinetic stability [1] | rate of weight loss on storage ([1]; 0% relative humidity at 25° C., once surface moisture has been removed) | rate of weight loss on storage ([1]; 0% relative humidity at 40° C.) | conversion to the anhydrous form of ZD6474 during drying ([1]; 25° C. and 0% relative humidity) | Compound | IC50 ([2]; EGF-stimulated HUVEC proliferation, read-out: EGF IC50) [nM] | IC50 ([2]; VEGF-stimulated HUVEC proliferation, read-out: VEGF IC50) [nM] | IC50 ([2]; basal HUVEC proliferation, read-out: Basal IC50) [nM] | inhibition of tumour growth (CaLu-6 tumour xenografts) [%] | increase in epiphyseal growth plate hypertrophy [3] [%]
1 | non-hygroscopic | 0.63 | kinetically stable | – | – | – | COc1cc2c(Nc3ccc(Br)cc3F)ncnc2cc1OCC1CCN(C)CC1 [ZD6474 anhydrous, 4-(4-bromo-2-fluoroanilino)-6-methoxy-7-(1-methylpiperidin-4-ylmethoxy)quinazoline] | – | – | – | – | –
2 | non-hygroscopic | – | kinetically stable | extremely slow | surprisingly slow | less than 5% | COc1cc2c(Nc3ccc(Br)cc3F)ncnc2cc1OCC1CCN(C)CC1 [ZD6474 monohydrate, 4-(4-bromo-2-fluoroanilino)-6-methoxy-7-(1-methylpiperidin-4-ylmethoxy)quinazoline] | – | – | – | – | –
3 | – | – | – | – | – | – | COc1cc2c(Nc3ccc(Br)cc3F)ncnc2cc1OCC1CCN(C)CC1 [ZD6474, 4-(4-bromo-2-fluoroanilino)-6-methoxy-7-(1-methylpiperidin-4-ylmethoxy)quinazoline] | 170 | 60 | > 3000 | 78 | 75
